Read-outs that look alike come from different tables or passages of the source.
Tests used:
[1] = test system: caterpillars of the armyworm (Spodoptera frugiperda); experiment: Spodoptera frugiperda test (SPODFR spray treatment); type: in vivo; settings: 168 h; for pest or weed control at 100 g/ha: read-out: activity in %
Outline: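 Percent caterpillar mortality read 7 days after infestation (0% none killed, 100% all killed). Treatment was a spray of the acetone/DMF/emulsifier formulation, water-diluted to test concentration, onto Zea mays leaf discs, allowed to dry before larvae were added.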

[2] = test system: green peach aphid (Myzus persicae); experiment: Myzus test (MYZUPE spray treatment), Use Example 4; type: in vivo; settings: 144 h; for pest or weed control at 100 g/ha: read-out: activity in %
Outline: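 Compound was formulated in acetone/dimethylformamide with alkylaryl polyglycol ether emulsifier and diluted in emulsifier-containing water. It was sprayed onto Chinese cabbage leaf discs infested with all stages of Myzus persicae. Mortality (%) was scored after 6 days, where 100% means all aphids killed.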

[3] = test system: larvae of the mustard beetle (Phaedon cochleariae); experiment: Phaedon test (PHAECO spray treatment); type: in vivo; settings: 168 h, read-out: activity in %
Outline: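 Mortality of mustard beetle larvae, expressed as percent killed (100% all, 0% none), assessed 7 days after spraying. Spray liquor made from compound in acetone plus dimethylformamide with alkylaryl polyglycol ether, diluted in emulsifier-containing water to the desired concentration.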

[4] = log P determination by HPLC on reversed-phase columns (EEC Directive 79/831 Annex V.A8); type: physicochemical; settings: pH 2.7
Outline: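 Calibration used unbranched alkan-2-ones of 3 to 16 carbons with known log P, values interpolated linearly from retention times between neighbouring standards. Acidic-range LC-MS run at pH 2.7, eluents aqueous and acetonitrile formic acid 0.1%, linear gradient 10% to 95% acetonitrile.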

[5] = reversed-phase C18 HPLC column, HPLC on reversed-phase columns (C 18), EEC Directive 79/831 Annex V.A8, read-out: logP
[6] = HPLC on reversed-phase columns (C 18), EEC Directive 79/831 Annex V.A8, read-out: logP

SMILES	pest or weed control at 100 g/ha ([1]; 100 g/ha, after 7 days)	pest or weed control at 100 g/ha ([2]; 100 g/ha, after 6 days)	pest or weed control at 100 g/ha ([3]; 100 g/ha, after 7 days)	chromatographic logP [4]	further results
Cc1cc(Cl)cc(C(=O)NC2CC2)c1NC(=O)c1cc(Cn2nccn2)nn1-c1ncccc1Cl [Example 120]	100%	90%	100%	2.26	–
CCNC(=O)c1cc(C#N)cc(C)c1NC(=O)c1cc(Cn2ncc(C(F)(F)F)n2)nn1-c1ccccc1Cl [Example 288]	100%	100%	100%	–	chromatographic logP [4, 5]: 3.3
Cc1cc(Cl)cc(C(=O)NC2CC2)c1NC(=O)c1cc(Cn2cc(C(F)(F)C(F)(F)F)nn2)nn1-c1ncccc1Cl [Example 301]	100%	90%	100%	3.26	–
Cc1cc(I)cc(C(N)=O)c1NC(=O)c1cc(Cn2cc(C(F)(F)F)nn2)nn1-c1ncccc1Cl [Example 213]	100%	100%	100%	2.64	–
CNC(=O)c1cc(I)cc(C)c1NC(=O)c1cc(Cn2cc(C(F)(F)C(F)(F)C(F)(F)F)nn2)nn1-c1ncccc1Cl [Example 337]	–	–	–	–	pest or weed control at 100 g/ha [1]: 100%; pest or weed control at 100 g/ha [2]: 100%; pest or weed control at 100 g/ha [3]: 100%; chromatographic logP [4, 6]: 3.59
Cc1cc(I)cc(C(=O)NC(C)(C)C)c1NC(=O)c1cc(Cn2cc(C(F)(F)C(F)(F)F)nn2)nn1-c1ncccc1Cl [Example 313]	100%	100%	100%	4.09	–
CNC(=O)c1cc(Cl)cc(C)c1NC(=O)c1cc(Cn2ncc(C(F)(F)C(F)(F)C(F)(F)F)n2)nn1-c1ncccc1Cl [Example 368]	–	–	–	–	pest or weed control at 100 g/ha [1]: 100%; pest or weed control at 100 g/ha [2]: 100%; pest or weed control at 100 g/ha [3]: 100%; chromatographic logP [4, 6]: 3.76
Cc1cc(C#N)cc(C(=O)NC(C)(C)C)c1NC(=O)c1cc(Cn2cc(-c3ccc(F)cc3)nn2)nn1-c1ncccc1Cl [Example 53]	100%	80%	100%	3.17	–
CSC[C@H](C)NC(=O)c1cc(I)cc(C)c1NC(=O)c1cc(Cn2cc(C(F)(F)C(F)(F)F)nn2)nn1-c1ncccc1Cl [Example 316]	100%	100%	100%	3.91	–
CSC[C@H](C)NC(=O)c1cc(I)cc(C)c1NC(=O)c1cc(Cn2ncc(C(F)(F)C(F)(F)C(F)(F)F)n2)nn1-c1ncccc1Cl [Example 373]	–	–	–	–	pest or weed control at 100 g/ha [1]: 100%; pest or weed control at 100 g/ha [2]: 100%; pest or weed control at 100 g/ha [3]: 100%; chromatographic logP [4, 6]: 4.65
CCNC(=O)c1cc(C#N)cc(C)c1NC(=O)c1cc(Cn2cc(C(F)(F)C(F)(F)F)nn2)nn1-c1ncccc1Cl [Example 319]	100%	100%	100%	2.89	–
CNC(=O)c1cc(Cl)cc(C)c1NC(=O)c1cc(Cn2cc(C(F)(C(F)(F)F)C(F)(F)F)nn2)nn1-c1ncccc1Cl [Example 225]	–	100%	100%	3.36	pest or weed control at 20 g/ha ([1]; 20 g/ha, after 7 days): 100%
Cc1cc(C#N)cc(C(=O)NC2CC2)c1NC(=O)c1cc(Cn2cc(C(F)(F)C(F)(F)F)nn2)nn1-c1ncccc1Cl [Example 318]	100%	100%	100%	2.89	–
Cc1cc(C#N)cc(C(=O)NC(C)(C)C)c1NC(=O)c1cc(Cn2cc(-c3ccc(Cl)cc3)nn2)nn1-c1ncccc1Cl [Example 54]	100%	80%	100%	3.54	–
Cc1cc(Cl)cc(C(=O)NC2CC2)c1NC(=O)c1cc(Cn2ncc(C(F)(F)F)n2)nn1-c1ncccc1Cl [Example 137]	100%	100%	100%	3.18	–
CSC[C@H](C)NC(=O)c1cc(C#N)cc(C)c1NC(=O)c1cc(Cn2nc(C(F)(F)F)c(C(F)(F)F)n2)nn1-c1ncccc1Cl [Example 400]	100%	–	100%	–	pest or weed control at 500 g/ha ([2]; 500 g/ha, after 6 days): 100%; chromatographic logP [4, 5]: 4.05
Cc1cc(I)cc(C(N)=O)c1NC(=O)c1cc(Cn2nc(C(F)(F)F)c(C(F)(F)F)n2)nn1-c1ncccc1Cl [Example 402]	100%	80%	100%	3.67	–

SMILES	pest or weed control at 100 g/ha ([1]; 100 g/ha, after 7 days)	pest or weed control at 100 g/ha ([2]; 100 g/ha, after 6 days)	pest or weed control at 100 g/ha ([3]; 100 g/ha, after 7 days)	chromatographic logP [4]	further results
CCNC(=O)c1cc(C#N)cc(C)c1NC(=O)c1cc(Cn2cc(C(F)(F)F)nn2)nn1-c1ncccc1Br [Example 8]	100%	80%	100%	–	chromatographic logP [4, 5]: 2.88
CNC(=O)c1cc(Cl)cc(C)c1NC(=O)c1cc(Cn2ncc(C3CC3)n2)nn1-c1ncccc1Cl [Example 21]	100%	100%	100%	2.85	–
Cc1cc(I)cc(C(=O)NCC#N)c1NC(=O)c1cc(Cn2cc(C(F)(F)F)nn2)nn1-c1ncccc1Cl [Example 215]	100%	90%	100%	2.82	–
Cc1cc(C#N)cc(C(=O)NC(C)(C)C)c1NC(=O)c1cc(Cn2nnc3c(Cl)cc(C(F)(F)F)cc32)nn1-c1ncccc1Cl [Example 110]	100%	90%	100%	–	chromatographic logP [4, 5]: 3.96
CNC(=O)c1cc(Cl)cc(C)c1NC(=O)c1cc(Cn2cc(C(F)(F)F)nn2)nn1-c1ncccc1Cl [Example 187]	100%	100%	100%	2.6	–
CNC(=O)c1cc(C#N)cc(C)c1NC(=O)c1cc(Cn2ncc(C(F)(F)C(F)(F)C(F)(F)F)n2)nn1-c1ncccc1Cl [Example 387]	–	–	–	–	pest or weed control at 100 g/ha [1]: 100%; pest or weed control at 100 g/ha [2]: 100%; pest or weed control at 100 g/ha [3]: 100%; chromatographic logP [4, 6]: 3.39
Cc1cc(F)cc(C(=O)NC(C)C)c1NC(=O)c1cc(Cn2ncc(C(F)(F)F)n2)nn1-c1ncccc1Cl [Example 170]	100%	100%	100%	3.08	–
CSC[C@H](C)NC(=O)c1cc(I)cc(C)c1NC(=O)c1cc(Cn2ncc(C(F)(F)F)n2)nn1-c1ncccc1Cl [Example 166]	100%	100%	100%	3.98	–
CSC[C@H](C)NC(=O)c1cc(I)cc(C)c1NC(=O)c1cc(Cn2cc(C(F)(F)F)nn2)nn1-c1ncccc1Cl [Example 212]	100%	100%	100%	3.59	–
Cc1cc(C#N)cc(C(=O)NC(C)(C)C)c1NC(=O)c1cc(Cn2cc(C(F)(F)F)nn2)nn1-c1ncccc1Cl [Example 182]	100%	100%	100%	2.97	–
Cc1cc(C#N)cc(C(N)=O)c1NC(=O)c1cc(Cn2cc(C(F)(F)F)nn2)nn1-c1ncccc1Cl [Example 184]	100%	–	100%	2.12	pest or weed control at 20 g/ha ([2]; 20 g/ha, after 6 days): 100%
Cc1cc(Cl)cc(C(=O)NC(C)(C)C)c1NC(=O)c1cc(Cn2nc(C(F)(F)F)c(C(F)(F)F)n2)nn1-c1ncccc1Cl [Example 393]	100%	90%	100%	4.59	–
Cc1cc(C#N)cc(C(=O)NC(C)C)c1NC(=O)c1cc(Cn2ncc(C(F)(F)F)n2)nn1-c1ccccc1Cl [Example 286]	100%	80%	100%	–	chromatographic logP [4, 5]: 3.59
Cc1cc(C#N)cc(C(N)=O)c1NC(=O)c1cc(Cn2ncc(C(F)(C(F)(F)F)C(F)(F)F)n2)nn1-c1ncccc1Cl [Example 255]	100%	80%	100%	3.19	–
Cc1cc(Cl)cc(C(=O)NCC2CC2)c1NC(=O)c1cc(Cn2cc(C(F)(F)C(F)(F)C(F)(F)F)nn2)nn1-c1ncccc1Cl [Example 325]	–	–	–	–	pest or weed control at 100 g/ha [1]: 100%; pest or weed control at 100 g/ha [2]: 100%; pest or weed control at 100 g/ha [3]: 100%; chromatographic logP [4, 6]: 3.9
CNC(=O)c1cc(C#N)cc(C)c1NC(=O)c1cc(Cn2ncc(C(F)(F)F)n2)nn1-c1ccccc1Cl [Example 284]	100%	80%	100%	–	chromatographic logP [4, 5]: 3.1

Reference: patent US8536202B2, “Triazole-substituted anthranilamides as pesticides” (Bayer Cropscience AG, priority 2010, dated 2013)
